Measurements as given in PubChem BioAssay (NCI).
Where “and” joins values, the source holds several entries; their conditions need not be identical. Equal values may be shown once.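 Results reflect a 48-hour exposure of cells in 96-well plates to compound at five concentrations. GI50 marks 50% less growth. The concentration for full growth arrest is given as TGI.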

Assays:
Assay in all cases: NCI anticancer screen, dose series, 48 h
[1] = tested on: K-562 leukemia
[2] = tested on: OVCAR-8 ovarian
[3] = tested on: RPMI-8226 leukemia
[4] = tested on: TK-10 renal
[5] = tested on: UACC-257 melanoma
[6] = tested on: HL-60(TB) leukemia

Structure (SMILES) | TGI [1] [µM] | TGI [2] | TGI [3] | TGI [4] | TGI [5] | TGI [6] | GI50 [6] | GI50 [4]
COc1ccc(/C=C2\NC(=S)N(CN3CCOCC3)C2=O)cc1 | > 100 | > 100 µM | > 100 µM | > 100 µM | > 100 µM | – | – | –
C[C@H](OC(=O)/C=C/c1ccc(O)c(O)c1)[C@H](C)OC(=O)/C=C/c1ccc(O)c(O)c1 | > 100 | 26.2 µM | > 100 µM | 34.2 µM | 29.7 µM | – | – | –
COC(=O)CCC(=O)c1ccc2c(c1)CC1(Cc3ccccc3C1)C2 | – | > 100 µM | > 100 µM | > 100 µM | 84.2 µM | – | – | –
CN1CCN(C(=S)N(C(=O)c2ccc(Cl)cc2)C2CCCCC2)CC1 | > 100 | > 100 µM | > 100 µM | > 100 µM | > 100 µM | > 100 µM | – | –
CCN(CC)CCCNc1c2cc(OC)ccc2nc2cccc([N+](=O)[O-])c12 | 0.104 | 0.264 µM | 0.418 µM | 0.569 µM | 0.416 µM | 0.511 µM | – | –
ClC1(Cl)C2CCOC21n1cnc2ccccc21 (stereo not drawn) | > 100 | > 100 µM | > 100 µM | – | – | > 100 µM | – | –
CCN(CC)C(=O)N1CN(c2ccccc2)C2(CCN(CCCC3(c4ccc(F)cc4)OCCO3)CC2)C1=O | – | 44.4 µM | 30.1 µM | 38.7 µM | 26.3 µM | 27.9 µM | – | –
COC(=O)Cc1c(-c2c(CC(=O)OC)c3ccccc3n2C2OC(COC3OC(COC(C)=O)C(OC(C)=O)C(OC(C)=O)C3OC(C)=O)C(O)C(O)C2O)[nH]c2ccccc12 (stereo not drawn) | > 100 | – | > 100 µM | > 100 µM | > 100 µM | > 100 µM | – | –
COc1cc(C2C(Cl)C(=O)N2NC(=O)c2ccccc2O)cc(OC)c1OC (stereo not drawn) | > 10 | > 10 µM | – | > 10 µM | 7.46 µM | 5.96 µM | – | –
c1ccc2c(CCNC3=NCCO3)cccc2c1 | > 10 | > 10 µM | > 10 µM | > 10 µM | – | > 10 µM | – | –
CC(C)N=C(NC#N)NS(=O)(=O)c1cnccc1NC1CCCCCCC1 | > 100 | > 100 µM | > 100 µM | > 100 µM | > 100 µM | – | – | –
Cc1ccc(S(=O)(=O)N/N=C2/C3CC4CCC2C4C3)cc1 (stereo not drawn) | – | > 100 µM | > 100 µM | > 100 µM | > 100 µM | – | – | –
C[C@H](N)C(=O)Nc1ccc(-c2nc3ccccc3s2)cc1Cl | 36.8 | > 100 µM | – | 14.7 µM | 34.4 µM | – | – | –
CC(C)[Si](CC1=CCCCC12C(=O)N(COCC[Si](C)(C)C)c1ccccc12)(C(C)C)C(C)C (stereo not drawn) | > 100 | > 100 µM | > 100 µM | > 100 µM | > 100 µM | – | – | –
COc1ccc(-c2c(C#N)c(N)n(C3OC(COC(C)=O)C(OC(C)=O)C(OC(C)=O)C3OC(C)=O)c(=S)c2C#N)cc1 (stereo not drawn) | – | > 100 µM and 75.4 µM | > 100 µM and 68.8 µM | > 100 µM and 49.3 µM | > 100 µM and 44.5 µM | > 100 µM and 48.5 µM | > 100 µM and 27.9 µM | 50.5 µM and 21.9 µM
Cc1cc(NS(=O)(=O)c2ccc(N=Nc3c(Nc4ccccc4)nn(-c4ccc(S(=O)(=O)Nc5ccncn5)cc4)c3C)cc2)no1 | > 100 | > 100 µM | – | > 100 µM | > 100 µM | – | – | –
COc1ccc(-c2nc3ccccc3c(=O)[nH]2)cc1OC | > 100 | 67.5 µM | > 100 µM | – | > 100 µM | – | – | –
